Target: T1, Nav1.7 (or SCN9A) channel; HEK cells stably transfected with hSCN9A (Homo sapiens, UniProt Q15858)
T1 construct: expressed in transfected cells
Assay: Nav1.7 block, PatchXpress 7000 automated whole-cell voltage clamp, estimated IC50 (EIC50)
Type: cell-based
Conditions: estimated IC50; hSCN9A HEK cells, PatchXpress platform; Examples 283-814

T1 sequence (Q15858 whole entry): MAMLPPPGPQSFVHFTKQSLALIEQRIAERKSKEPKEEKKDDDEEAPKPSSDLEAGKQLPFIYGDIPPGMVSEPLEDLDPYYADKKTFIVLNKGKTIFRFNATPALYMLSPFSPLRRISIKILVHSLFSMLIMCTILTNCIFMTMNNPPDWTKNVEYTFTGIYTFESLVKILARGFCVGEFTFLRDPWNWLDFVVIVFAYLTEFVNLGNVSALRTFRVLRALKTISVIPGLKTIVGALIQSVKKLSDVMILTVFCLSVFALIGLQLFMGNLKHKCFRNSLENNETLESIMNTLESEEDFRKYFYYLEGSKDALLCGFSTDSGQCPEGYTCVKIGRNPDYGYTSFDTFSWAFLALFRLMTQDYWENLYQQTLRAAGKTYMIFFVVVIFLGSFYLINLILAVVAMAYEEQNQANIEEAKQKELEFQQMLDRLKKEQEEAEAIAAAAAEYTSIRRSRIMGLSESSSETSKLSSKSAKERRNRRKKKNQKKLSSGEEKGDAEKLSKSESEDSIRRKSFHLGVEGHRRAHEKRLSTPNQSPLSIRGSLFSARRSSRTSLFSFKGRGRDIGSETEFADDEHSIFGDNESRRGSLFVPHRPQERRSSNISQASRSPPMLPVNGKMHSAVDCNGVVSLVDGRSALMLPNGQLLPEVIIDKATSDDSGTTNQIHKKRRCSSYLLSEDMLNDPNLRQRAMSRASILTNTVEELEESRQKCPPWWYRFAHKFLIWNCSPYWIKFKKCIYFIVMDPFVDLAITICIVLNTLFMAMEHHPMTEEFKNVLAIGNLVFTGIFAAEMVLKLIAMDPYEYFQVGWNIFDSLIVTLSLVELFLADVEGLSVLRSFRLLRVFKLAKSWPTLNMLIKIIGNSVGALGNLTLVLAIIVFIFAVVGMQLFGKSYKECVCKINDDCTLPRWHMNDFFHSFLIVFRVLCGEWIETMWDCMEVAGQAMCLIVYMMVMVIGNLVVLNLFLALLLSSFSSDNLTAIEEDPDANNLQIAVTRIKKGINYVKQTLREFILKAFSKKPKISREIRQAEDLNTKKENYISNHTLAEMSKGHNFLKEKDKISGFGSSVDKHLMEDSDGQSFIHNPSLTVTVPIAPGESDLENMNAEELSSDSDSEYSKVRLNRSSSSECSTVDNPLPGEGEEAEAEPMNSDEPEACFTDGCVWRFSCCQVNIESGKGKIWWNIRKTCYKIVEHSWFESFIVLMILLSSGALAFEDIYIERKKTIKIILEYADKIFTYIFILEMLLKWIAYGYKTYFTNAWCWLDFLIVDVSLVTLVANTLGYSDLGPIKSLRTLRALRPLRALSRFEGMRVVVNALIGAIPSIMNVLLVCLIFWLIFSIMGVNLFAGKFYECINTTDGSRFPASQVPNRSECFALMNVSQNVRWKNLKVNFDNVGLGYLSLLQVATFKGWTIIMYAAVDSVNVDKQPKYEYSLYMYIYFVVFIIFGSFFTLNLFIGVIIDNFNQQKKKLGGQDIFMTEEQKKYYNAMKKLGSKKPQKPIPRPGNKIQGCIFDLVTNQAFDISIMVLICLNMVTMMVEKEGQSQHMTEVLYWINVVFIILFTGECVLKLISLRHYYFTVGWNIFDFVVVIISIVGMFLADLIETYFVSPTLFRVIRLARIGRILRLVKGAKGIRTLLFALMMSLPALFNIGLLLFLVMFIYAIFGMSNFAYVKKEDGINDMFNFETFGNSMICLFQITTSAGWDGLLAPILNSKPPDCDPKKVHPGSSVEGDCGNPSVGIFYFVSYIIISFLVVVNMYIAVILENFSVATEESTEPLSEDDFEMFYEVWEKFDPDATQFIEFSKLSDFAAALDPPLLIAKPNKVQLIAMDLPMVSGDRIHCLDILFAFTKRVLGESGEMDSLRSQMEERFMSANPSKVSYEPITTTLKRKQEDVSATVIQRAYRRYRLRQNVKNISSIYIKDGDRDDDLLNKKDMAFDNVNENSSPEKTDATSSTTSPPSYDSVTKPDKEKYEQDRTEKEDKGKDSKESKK

SMILES | IC50 [nM]
N#Cc1cc(S(=O)(=O)Nc2nccs2)ccc1Oc1cnn(Cc2ccc(Cl)cc2)c1 [Example 331, 4-{[1-(4-chlorobenzyl)-1H-pyrazol-4-yl]oxy}-3-cyano-N-1,3-thiazol-2-ylbenzenesulfonamide] | 2000
N#Cc1cc(S(=O)(=O)Nc2nccs2)ccc1Oc1cnn(-c2ccc(Cl)cc2)c1 [Example 332, 4-{[1-(4-chlorophenyl)-1H-pyrazol-4-yl]oxy}-3-cyano-N-1,3-thiazol-2-ylbenzenesulfonamide] | >1000
N#Cc1cc(S(=O)(=O)Nc2nccs2)ccc1Oc1cnn(-c2ccc(Cl)cc2Cl)c1 [Example 333, 3-cyano-4-{[1-(2,4-dichlorophenyl)-1H-pyrazol-4-yl]oxy}-N-1,3-thiazol-2-ylbenzenesulfonamide] | >1000
N#Cc1cc(S(=O)(=O)Nc2nccs2)ccc1Oc1cnn(-c2cccc(C(F)(F)F)c2)c1 [Example 334, 3-cyano-N-1,3-thiazol-2-yl-4-({1-[3-(trifluoromethyl)phenyl]-1H-pyrazol-4-yl}oxy)benzenesulfonamide] | 3400
Cn1nc(C(F)(F)F)cc1-c1ccc(Oc2ccc(S(=O)(=O)Nc3nccs3)cc2C#N)c(Cl)c1 [Example 335, 4-{2-chloro-4-[1-methyl-3-(trifluoromethyl)-1H-pyrazol-5-yl]phenoxy}-3-cyano-N-1,3-thiazol-2-ylbenzenesulfonamide] | 32
N#Cc1cc(S(=O)(=O)Nc2nccs2)ccc1Oc1ccc(Cl)c(Cn2cncn2)c1 [Example 336, 4-[4-chloro-3-(1H-1,2,4-triazol-1-ylmethyl)phenoxy]-3-cyano-N-1,3-thiazol-2-ylbenzenesulfonamide] | 2200
CCn1nc(C(F)(F)F)cc1-c1ccc(Oc2ccc(S(=O)(=O)Nc3ccon3)cc2C#N)cc1 [Example 337, 3-cyano-4-{4-[1-ethyl-3-(trifluoromethyl)-1H-pyrazol-5-yl]phenoxy}-N-isoxazol-3-ylbenzenesulfonamide] | 2500
CCn1nc(C(F)(F)F)cc1-c1ccc(Oc2ccc(S(=O)(=O)Nc3ncc(F)cn3)cc2C#N)cc1 [Example 338, 3-cyano-4-{4-[1-ethyl-3-(trifluoromethyl)-1H-pyrazol-5-yl]phenoxy}-N-(5-fluoropyrimidin-2-yl)benzenesulfonamide] | 1800
CCn1nc(C(F)(F)F)cc1-c1ccc(Oc2ccc(S(=O)(=O)Nc3ncccc3Cl)cc2C#N)cc1 [Example 339, N-(3-chloropyridin-2-yl)-3-cyano-4-{4-[1-ethyl-3-(trifluoromethyl)-1H-pyrazol-5-yl]phenoxy}benzenesulfonamide] | 15000
CCn1nc(C(F)(F)F)cc1-c1ccc(Oc2ccc(S(=O)(=O)Nc3ccc(C(F)(F)F)cn3)cc2C#N)cc1 [Example 340, 3-cyano-4-{4-[1-ethyl-3-(trifluoromethyl)-1H-pyrazol-5-yl]phenoxy}-N-[5-(trifluoromethyl)pyridin-2-yl]benzenesulfonamide] | 34000
CCn1nc(C(F)(F)F)cc1-c1ccc(Oc2ccc(S(=O)(=O)Nc3cnsn3)cc2C#N)cc1 [Example 341, 3-cyano-4-{4-[1-ethyl-3-(trifluoromethyl)-1H-pyrazol-5-yl]phenoxy}-N-1,2,5-thiadiazol-3-ylbenzenesulfonamide] | 3600
CCn1nc(C(F)(F)F)cc1-c1ccc(Oc2ccc(S(=O)(=O)Nc3cc(C#N)ccn3)cc2C#N)cc1 [Example 342, 3-cyano-N-(4-cyanopyridin-2-yl)-4-{4-[1-ethyl-3-(trifluoromethyl)-1H-pyrazol-5-yl]phenoxy}benzenesulfonamide] | 18000
CCn1nc(C(F)(F)F)cc1-c1ccc(Oc2ccc(S(=O)(=O)Nc3ccc(C#N)cn3)cc2C#N)cc1 [Example 343, 3-cyano-N-(5-cyanopyridin-2-yl)-4-{4-[1-ethyl-3-(trifluoromethyl)-1H-pyrazol-5-yl]phenoxy}benzenesulfonamide] | >10000
Cn1nccc1-c1cc(F)ccc1Oc1ccc(S(=O)(=O)Nc2ncc(F)s2)cc1F [Example 347, 3-fluoro-4-[4-fluoro-2-(1-methyl-1H-pyrazol-5-yl)phenoxy]-N-(5-fluoro-1,3-thiazol-2-yl)benzenesulfonamide] | 300
Cn1ncnc1-c1cc(Cl)ccc1Oc1ccc(S(=O)(=O)Nc2ncc(F)s2)cc1F [Example 349, 4-[4-chloro-2-(1-methyl-1H-1,2,4-triazol-5-yl)phenoxy]-3-fluoro-N-(5-fluoro-1,3-thiazol-2-yl)benzenesulfonamide] | >1000
CCc1ccc(Oc2ccc(S(=O)(=O)Nc3nccs3)cc2C#N)c(-c2ccnn2C)c1 [Example 350, 3-cyano-4-[4-ethyl-2-(1-methyl-1H-pyrazol-5-yl)phenoxy]-N-1,3-thiazol-2-ylbenzenesulfonamide] | 15
CC(C)c1ccc(Oc2ccc(S(=O)(=O)Nc3nccs3)cc2C#N)c(-c2ccnn2C)c1 [Example 351, 3-cyano-4-[4-isopropyl-2-(1-methyl-1H-pyrazol-5-yl)phenoxy]-N-1,3-thiazol-2-ylbenzenesulfonamide] | 18
CC(C)c1cc(-n2ccc(C(F)(F)F)n2)ccc1Oc1ccc(S(=O)(=O)Nc2nccs2)cc1C#N [Example 352, 3-cyano-4-{2-isopropyl-4-[3-(trifluoromethyl)-1H-pyrazol-1-yl]phenoxy}-N-1,3-thiazol-2-ylbenzenesulfonamide] | 190
CC(C)c1cc(-n2cc(Cl)cn2)ccc1Oc1ccc(S(=O)(=O)Nc2nccs2)cc1C#N [Example 353, 4-[4-(4-chloro-1H-pyrazol-1-yl)-2-isopropylphenoxy]-3-cyano-N-1,3-thiazol-2-ylbenzenesulfonamide] | 220
CC(C)c1cc(-c2cc(C(F)(F)F)nn2C)ccc1Oc1ccc(S(=O)(=O)Nc2nccs2)cc1C#N [Example 354, 3-cyano-4-{2-isopropyl-4-[1-methyl-3-(trifluoromethyl)-1H-pyrazol-5-yl]phenoxy}-N-1,3-thiazol-2-ylbenzenesulfonamide] | 180
N#Cc1cc(S(=O)(=O)Nc2nccs2)ccc1Oc1ccc(Br)cc1CN1CCCC1 [Example 355, 4-[4-bromo-2-(pyrrolidin-1-ylmethyl)phenoxy]-3-cyano-N-1,3-thiazol-2-ylbenzenesulfonamide] | 400
Cc1cc(C(F)(F)F)nn1-c1ccc(Oc2ccc(S(=O)(=O)Nc3nccs3)cc2C#N)c(C(C)C)c1 [Example 356, 3-cyano-4-{2-isopropyl-4-[5-methyl-3-(trifluoromethyl)-1H-pyrazol-1-yl]phenoxy}-N-1,3-thiazol-2-ylbenzenesulfonamide] | 120
N#Cc1cc(S(=O)(=O)Nc2nccs2)ccc1Oc1ccc(Cl)cc1CN1CCC(O)C1 (stereo not shown) [Example 357, 4-{4-chloro-2-[(3-hydroxypyrrolidin-1-yl)methyl]phenoxy}-3-cyano-N-1,3-thiazol-2-ylbenzenesulfonamide] | 390
N#Cc1cc(S(=O)(=O)Nc2nccs2)ccc1Oc1ccc(Cl)cc1CN1CCC(F)(F)CC1 [Example 358, 4-{4-chloro-2-[(4,4-difluoropiperidin-1-yl)methyl]phenoxy}-3-cyano-N-1,3-thiazol-2-ylbenzenesulfonamide] | 360
Cn1nccc1-c1ccc(I)cc1Oc1ccc(S(=O)(=O)Nc2nccs2)cc1C#N [Example 359, 3-cyano-4-[5-iodo-2-(1-methyl-1H-pyrazol-5-yl)phenoxy]-N-1,3-thiazol-2-ylbenzenesulfonamide] | 11

From patent publication US8541588B2, “Sulfonamide derivatives” (Pfizer Limited, priority 2009, dated 2013)
